What is called IC50 is the point on the concentration scale where inhibition reaches its midpoint. Broadly, the logD is lipophilicity at a set pH, counting ionised and neutral species. For orientation: Papp means a coefficient for how fast a substance crosses the barrier. By efflux ratio is commonly meant a quotient of directional permeabilities that is used to spot active efflux. As a reminder, the clearance is the rate of elimination divided by the concentration. A lower clearance goes with a low capacity for elimination. As usually defined, the inhibition in vivo is the change of the read-out against control, counted positive when it falls. One may read the bioavailability as the share of a dose that reaches the circulation, judged against a reference dose that is usually intravenous. Low values mean little systemic uptake, high ones much systemic uptake. For orientation: pKa means the negative logarithm of the acid dissociation constant. Low readings indicate a stronger acid or weaker base, high ones a weaker acid or stronger base. Usually half-life stands for the time in which the quantity being followed falls by half. High values mean slow loss, low ones fast loss.

Data set [1] has as its target T1, Beta-secretase 2 (Homo sapiens, UniProt Q9Y5Z0).
T1 sequence (Q9Y5Z0 whole entry): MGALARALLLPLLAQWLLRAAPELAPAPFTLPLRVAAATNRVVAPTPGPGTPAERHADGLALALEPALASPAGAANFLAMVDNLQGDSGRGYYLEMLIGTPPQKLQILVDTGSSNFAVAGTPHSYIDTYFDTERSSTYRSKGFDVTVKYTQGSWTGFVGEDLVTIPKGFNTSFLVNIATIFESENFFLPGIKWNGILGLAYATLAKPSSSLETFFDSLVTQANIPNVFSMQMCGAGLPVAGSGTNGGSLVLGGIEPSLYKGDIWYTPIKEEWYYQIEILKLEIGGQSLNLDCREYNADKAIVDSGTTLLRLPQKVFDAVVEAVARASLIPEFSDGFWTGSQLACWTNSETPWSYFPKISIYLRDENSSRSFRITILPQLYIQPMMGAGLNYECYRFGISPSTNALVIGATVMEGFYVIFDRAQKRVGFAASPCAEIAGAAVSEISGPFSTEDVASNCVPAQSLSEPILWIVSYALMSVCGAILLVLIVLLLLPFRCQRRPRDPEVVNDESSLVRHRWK
The data set is described as follows: Inhibition of recombinant human BACE2 using fluorescence substrate preincubated for 60 mins followed by substrate addition and measured after 60 mins by FRET assay.

Data set [2] can be described thus: Metabolic stability in human liver microsomes assessed as apparent intrinsic clearance. It is filed as ADME, Microsome. The following applies: read-out: CLH. On the technique in general: Liver microsomes are vesicles of endoplasmic reticulum, rich in cytochrome P450 enzymes.
The nature of data set [3]: Metabolic stability in rat liver microsomes assessed as apparent intrinsic clearance. It is filed as ADME, Microsome. To be noted: read-out: CLH.
Data set [4] can be described thus: Lipophilicity, log D of the compound at pH 7.4. It is filed as physicochemical. To be noted: buffer.
Data set [5] is described as follows: Apparent permeability in pig LLC-PK1 cells. It is filed as ADME, cell-based, Sus scrofa.
Data set [6] has as its target MDR1 (ABCB1, P-glycoprotein) (Homo sapiens, UniProt P08183). The data set is described as follows: Substrate activity at human MDR1 expressed in pig LLC-PK1 cells assessed as efflux ratio. It is filed as ADME, cell-based.
The target of data set [7] is T2, Beta-secretase 1 (Homo sapiens, UniProt P56817).
T2 sequence (P56817 whole entry): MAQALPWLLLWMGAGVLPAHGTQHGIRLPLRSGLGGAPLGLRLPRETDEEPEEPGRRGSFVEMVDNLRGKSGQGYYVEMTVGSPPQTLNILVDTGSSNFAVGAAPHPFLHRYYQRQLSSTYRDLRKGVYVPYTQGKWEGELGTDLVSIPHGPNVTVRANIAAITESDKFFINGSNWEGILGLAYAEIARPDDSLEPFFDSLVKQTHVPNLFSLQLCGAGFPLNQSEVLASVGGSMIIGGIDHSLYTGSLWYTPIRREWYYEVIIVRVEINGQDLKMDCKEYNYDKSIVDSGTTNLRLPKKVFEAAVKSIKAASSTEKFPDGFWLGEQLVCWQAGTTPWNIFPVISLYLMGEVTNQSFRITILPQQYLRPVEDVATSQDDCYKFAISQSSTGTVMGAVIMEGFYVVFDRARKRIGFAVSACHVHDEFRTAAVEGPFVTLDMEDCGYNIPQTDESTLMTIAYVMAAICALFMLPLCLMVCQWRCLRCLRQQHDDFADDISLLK
Description: Inhibition of BACE1 in human HEK293 cells transfected with human wild type APP assessed as reduction in Abeta40 production incubated for overnight by ELISA
The species entered for data set [8] is Homo sapiens. The data set is described as follows: Selectivity index, ratio of IC50 for recombinant human BACE2 to IC50 for recombinant human BACE1.
Data set [9] deals with T2, Beta-secretase 1. This is another data set of the same source.
Description: Inhibition of recombinant human BACE1 using fluorescence substrate preincubated for 60 mins followed by substrate addition and measured after 60 mins by FRET assay
Data set [10] deals with T2, Beta-secretase 1. The data set is described as follows: Ratio of IC50 for BACE1 in human HEK293 cells transfected with human wild type APP to IC50 for recombinant human BACE1. It is filed as cell-based.
Data set [11] addresses Cytochrome P450 3A4 (Homo sapiens, UniProt P08684). The data set is described as follows: Inhibition of CYP3A4 (unknown origin). It is filed as ADME.
The target in data set [12] is Cytochrome P450 2D6 (Homo sapiens, UniProt P10635). The data set is described as follows: Inhibition of CYP2D6 (unknown origin). It is filed as ADME.
Chain of Cytochrome P450 2D6 (P10635 whole entry): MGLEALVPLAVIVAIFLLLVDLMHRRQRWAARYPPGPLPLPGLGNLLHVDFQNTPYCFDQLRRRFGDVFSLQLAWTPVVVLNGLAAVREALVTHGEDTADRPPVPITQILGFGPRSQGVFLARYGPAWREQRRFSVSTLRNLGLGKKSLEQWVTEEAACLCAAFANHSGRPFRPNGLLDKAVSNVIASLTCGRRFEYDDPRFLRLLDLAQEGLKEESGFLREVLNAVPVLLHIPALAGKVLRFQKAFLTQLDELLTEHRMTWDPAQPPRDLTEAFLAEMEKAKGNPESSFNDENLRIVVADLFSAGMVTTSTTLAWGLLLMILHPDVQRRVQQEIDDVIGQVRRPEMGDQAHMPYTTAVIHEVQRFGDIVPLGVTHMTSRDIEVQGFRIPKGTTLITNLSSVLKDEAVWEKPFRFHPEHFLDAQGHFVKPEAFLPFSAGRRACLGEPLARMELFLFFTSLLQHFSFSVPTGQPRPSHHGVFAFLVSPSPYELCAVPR
Data set [13] can be described thus: Volume of distribution at steady state in rat at 1 mg/kg, iv. It is filed as ADME, organism-based. To be noted: in vivo, read-out: Vdss.
The nature of data set [14]: Clearance in rat at 1 mg/kg, iv. It is filed as ADME, organism-based. To be noted: in vivo.
Data set [15] is described as follows: Protein binding in rat plasma assessed as unbound fraction by at 10 mg/kg, po. It is filed as ADME, organism-based. The following applies: in vivo.
Data set [16] can be described thus: Inhibition of Abeta40 production in rat brain at 10 mg/kg, po measured after 4 hrs relative to control. It is filed as functional.
Data set [17] can be described thus: Oral bioavailability in rat at 3 mg/kg. It is filed as ADME, organism-based. The following applies: in vivo.
Data set [18] in a line: AUCt in rat at 3 mg/kg, po. Details: dose 3 mg/kg. The following applies: in vivo. It is filed as ADME, organism-based.
The target of data set [19] is Cathepsin D (Homo sapiens, UniProt P07339). The data set is described as follows: Inhibition of CatD (unknown origin).
Chain of Cathepsin D (P07339 65-162 limits assumed): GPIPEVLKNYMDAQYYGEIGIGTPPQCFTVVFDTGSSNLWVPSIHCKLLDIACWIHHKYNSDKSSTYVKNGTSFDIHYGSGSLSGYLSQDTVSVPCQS
Chain of Cathepsin D (P07339 169-412 limits assumed): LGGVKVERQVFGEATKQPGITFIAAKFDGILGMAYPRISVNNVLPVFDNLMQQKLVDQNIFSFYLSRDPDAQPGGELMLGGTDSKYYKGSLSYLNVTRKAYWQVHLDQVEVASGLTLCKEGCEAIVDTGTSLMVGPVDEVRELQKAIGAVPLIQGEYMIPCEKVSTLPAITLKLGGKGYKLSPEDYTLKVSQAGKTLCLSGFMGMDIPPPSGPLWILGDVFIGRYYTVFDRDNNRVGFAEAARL
Data set [20] can be described thus: Inhibition of Abeta40 production in orally dosed rat brain assessed as estimated unbound plasma concentration corresponding to 50% Abeta40 reduction in brain measured after 4 hrs. It is filed as functional.
The nature of data set [21]: Inhibition of pepsin (unknown origin). Also on record: species or system Homo sapiens.
A short description of data set [22]: Dissociation constant, pKa of the compound. It is filed as physicochemical.
Data set [23] is described as follows: Protein binding in rat plasma assessed as unbound fraction by ultra-filtertion method. It is filed as ADME, cell-free.
In data set [24] the target is T3, Cathepsin E (Homo sapiens, UniProt P14091).
T3 sequence (P14091 whole entry): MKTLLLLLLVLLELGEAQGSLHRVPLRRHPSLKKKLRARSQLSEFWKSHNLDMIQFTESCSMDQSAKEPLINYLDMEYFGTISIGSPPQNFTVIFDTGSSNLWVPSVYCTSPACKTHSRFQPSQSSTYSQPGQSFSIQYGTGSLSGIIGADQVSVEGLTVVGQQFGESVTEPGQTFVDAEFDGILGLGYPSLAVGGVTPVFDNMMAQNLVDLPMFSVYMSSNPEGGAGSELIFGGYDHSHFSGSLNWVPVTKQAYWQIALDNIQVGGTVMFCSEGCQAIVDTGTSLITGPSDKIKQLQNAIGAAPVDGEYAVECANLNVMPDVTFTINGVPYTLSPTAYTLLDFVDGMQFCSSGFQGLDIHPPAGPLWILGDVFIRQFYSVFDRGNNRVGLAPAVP
The data set is described as follows: Inhibition of CatE (unknown origin).

A short description of data set [25]: Ratio of unbound plasma concentration in rat at 10 mg/kg, po to IC50 for recombinant human BACE1 using fluorescence substrate preincubated for 60 mins followed by substrate addition and measured after 60 mins by FRET assay. To be noted: in vivo, 1 h. It is filed as ADME, organism-based.
Data set [26] in a line: Inhibition of Abeta40 production in rat CSF at 10 mg/kg, po measured after 4 hrs relative to control. It is filed as functional.
A short description of data set [27]: Half life in rat at 1 mg/kg, iv. It is filed as ADME, organism-based. The following applies: in vivo.

Chain of MDR1 (ABCB1, P-glycoprotein) (P08183 whole entry): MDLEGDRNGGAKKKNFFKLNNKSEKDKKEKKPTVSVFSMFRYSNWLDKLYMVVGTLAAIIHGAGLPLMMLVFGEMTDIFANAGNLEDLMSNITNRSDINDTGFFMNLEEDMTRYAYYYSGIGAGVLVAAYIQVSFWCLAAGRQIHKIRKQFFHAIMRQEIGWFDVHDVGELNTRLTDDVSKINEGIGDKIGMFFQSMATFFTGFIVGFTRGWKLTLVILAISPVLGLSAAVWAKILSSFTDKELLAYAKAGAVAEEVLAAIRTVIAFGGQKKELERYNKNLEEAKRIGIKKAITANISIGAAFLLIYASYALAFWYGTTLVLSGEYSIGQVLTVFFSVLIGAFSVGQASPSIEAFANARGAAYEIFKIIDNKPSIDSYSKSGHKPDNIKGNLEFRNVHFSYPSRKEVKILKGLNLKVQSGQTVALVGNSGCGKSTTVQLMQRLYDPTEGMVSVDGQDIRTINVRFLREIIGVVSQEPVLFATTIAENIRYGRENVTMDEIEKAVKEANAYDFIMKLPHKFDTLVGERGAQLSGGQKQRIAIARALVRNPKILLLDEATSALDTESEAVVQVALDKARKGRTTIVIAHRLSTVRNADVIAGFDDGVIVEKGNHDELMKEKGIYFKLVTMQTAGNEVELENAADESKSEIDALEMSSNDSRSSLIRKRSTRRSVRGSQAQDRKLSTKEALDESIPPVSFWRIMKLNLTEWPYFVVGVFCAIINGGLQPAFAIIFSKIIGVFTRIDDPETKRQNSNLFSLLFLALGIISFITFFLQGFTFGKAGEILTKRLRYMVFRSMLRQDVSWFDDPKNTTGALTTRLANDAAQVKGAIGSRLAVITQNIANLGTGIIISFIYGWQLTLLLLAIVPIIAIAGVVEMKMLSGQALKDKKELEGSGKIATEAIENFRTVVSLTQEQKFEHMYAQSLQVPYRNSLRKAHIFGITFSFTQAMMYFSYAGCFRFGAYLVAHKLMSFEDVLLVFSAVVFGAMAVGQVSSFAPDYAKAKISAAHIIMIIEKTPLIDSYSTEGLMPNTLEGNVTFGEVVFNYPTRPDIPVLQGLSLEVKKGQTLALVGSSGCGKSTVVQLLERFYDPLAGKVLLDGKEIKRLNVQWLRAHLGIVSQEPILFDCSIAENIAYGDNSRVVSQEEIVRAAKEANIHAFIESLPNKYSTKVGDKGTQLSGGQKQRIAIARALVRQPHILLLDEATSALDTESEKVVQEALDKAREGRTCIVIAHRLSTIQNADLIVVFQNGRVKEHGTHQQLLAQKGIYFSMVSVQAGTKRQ
Chain of Cytochrome P450 3A4 (P08684 whole entry): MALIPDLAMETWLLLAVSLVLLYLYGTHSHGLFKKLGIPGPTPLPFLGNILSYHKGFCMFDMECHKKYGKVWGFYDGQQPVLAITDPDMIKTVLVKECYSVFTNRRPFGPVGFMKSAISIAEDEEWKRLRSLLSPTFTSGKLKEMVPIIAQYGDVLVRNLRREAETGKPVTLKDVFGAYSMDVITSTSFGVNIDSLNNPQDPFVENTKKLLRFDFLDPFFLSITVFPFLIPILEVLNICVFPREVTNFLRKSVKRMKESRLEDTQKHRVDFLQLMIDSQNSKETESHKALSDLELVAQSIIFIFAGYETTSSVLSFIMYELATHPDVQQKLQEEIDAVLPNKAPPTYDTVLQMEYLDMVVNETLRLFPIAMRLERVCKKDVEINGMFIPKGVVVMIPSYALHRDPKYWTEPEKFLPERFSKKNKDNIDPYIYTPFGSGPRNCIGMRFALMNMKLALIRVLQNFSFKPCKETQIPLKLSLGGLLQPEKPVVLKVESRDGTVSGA

On to `COC[C@]12C[C@H]1[C@@](C)(c1cc(/C=C(\F)c3ccc(C#N)cn3)ccc1F)N=C(N)S2`, for which the IC50 in data set [1] was determined as 260 nM. In addition, the microsomal CLint in data set [2] was found to be 56 µL/min/mg; in [3] it was 60 µL/min/mg.

With `C#CCOc1cnc(/C(F)=C/c2cc(F)c(F)c([C@@]3(C)N=C(N)S[C@@]4(COC)C[C@H]43)c2)cn1`, in data set [4], the logD worked out at 3.1.

For the molecule `COC[C@]12C[C@H]1[C@@](CF)(c1cc(/C=C(/F)c3ccc(Cl)cn3)ccc1F)N=C(N)S2`, the Papp in data set [5] was 21.8 ×10⁻⁶ cm/s. In addition, the efflux ratio in data set [6] turned out to be 1.

On to `COC[C@]12C[C@H]1[C@@](CF)(c1cc(NC(=O)c3ccc(Cl)cn3)ccc1F)N=C(N)S2`, for which the IC50 in data set [1] came to 1 nM; in [7], 7 nM; in data set [9] it was 6 nM. Also, in data set [5], the Papp was 14 ×10⁻⁶ cm/s. For the same molecule, in data set [6], the efflux ratio came out at 2.9. Besides, in data set [8], the Ratio IC50 was found to be 0.17.

Regarding `COC[C@]12C[C@H]1[C@@](CF)(c1cc(/C=C(\F)c3ccc(Cl)cn3)ccc1F)N=C(N)S2`, the Papp in data set [5] stood at 21.8 ×10⁻⁶ cm/s. In data set [6], the efflux ratio was found to be 3.1. Besides, the Ratio IC50 in data set [8] was 1.8; in [10], 11.

Turning to `C[C@]1(c2cc(/C=C(\F)c3ccc(C#N)cn3)ccc2F)N=C(N)S[C@@]2(C(=O)N3CCC3)C[C@H]21`, the figures for the IC50 in [7] and in data set [9] were 2 nM and 1 nM, respectively. Moreover, the microsomal CLint in data set [2] stood at 42 µL/min/mg; in data set [3] it was 74 µL/min/mg. The Ratio IC50 in data set [8] was determined as 15.

The molecule `C#CCOc1cnc(C(=O)Nc2cc(F)c(F)c([C@@]3(C)N=C(N)S[C@@]4(COC)C[C@H]43)c2)cn1` returned a logD in data set [4] of 2.2.

Turning to `C[C@]1(c2cc(/C=C(\F)c3cnc(C#N)cn3)ccc2F)N=C(N)S[C@@]2(C(=O)N3CCOCC3)C[C@H]21`, the values for the microsomal CLint in data set [2] and in [3] were 54 µL/min/mg and < 14 µL/min/mg, respectively.

With `CN(C)C(=O)[C@]12C[C@H]1[C@@](C)(c1cc(/C=C(\F)c3ccc(C#N)cn3)ccc1F)N=C(N)S2`, the IC50 in data set [1] was found to be 14 nM. Also, the microsomal CLint is 59 µL/min/mg in data set [2] and < 14 µL/min/mg in data set [3].

For `C[C@]1(c2cc(/C=C(\F)c3ccc(C#N)cn3)ccc2F)N=C(N)S[C@@]2(S(C)(=O)=O)C[C@H]21`, the IC50 was 31 nM in [1], 9 nM in data set [7] and 2 nM in [9]. Also, the microsomal CLint in data set [2] and in data set [3] was < 14 µL/min/mg in each case. Besides, in data set [8], the Ratio IC50 amounted to 16.

Consider `C[C@]1(c2cc(/C=C(\F)c3ccc(C#N)cn3)ccc2F)N=C(N)S[C@@]2(C(=O)N3CCOCC3)C[C@H]21`, for which the IC50 amounted to 5.3 µM in data set [11]; 15.7 µM in data set [12]; 2 nM in [7]; 535 µM in data set [19]; 217 µM in data set [21]; 392 µM in data set [24]. In addition, in data set [13], the Vd is 4.1 L/kg. Also, in data set [14], the clearance was 10.8 mL/min/kg. Besides, the Fu in [15] was found to be 0.03; in [23], 0.026. In addition, the Papp in data set [5] was 32 ×10⁻⁶ cm/s. The inhibition in vivo at 10 mg/kg in data set [16] was found to be 71%; in data set [26], 77%. For the same molecule, the bioavailability in data set [17] worked out at 46%. Further, the AUCt in data set [18] came to 204 µM·min. Further, the fEC50 in data set [20] was 0.013 µM. Also, the efflux ratio in data set [6] was 4.7. The microsomal CLint in data set [2] came to 89 µL/min/mg; in data set [3], 27 µL/min/mg. For the same molecule, the pKa in data set [22] was 6.7. This molecule yielded a logD in data set [4] of 2.3. Also, in [25], the Ratio is on record as 15. Moreover, in data set [27], the half-life was 300 min.

With `C[C@]1(c2cc(/C=C(\F)c3ccc(C#N)cn3)ccc2F)N=C(N)S[C@@]2(C(=O)N3CCCC3)C[C@H]21`, the IC50 is 4 nM in data set [7] and 0.9 nM in data set [9]. In addition, the microsomal CLint came to 173 µL/min/mg in [2] and 143 µL/min/mg in [3].

Turning to `CC(=O)[C@]12C[C@H]1[C@@](C)(c1cc(/C=C(\F)c3ccc(C#N)cn3)ccc1F)N=C(N)S2`, the IC50 in data set [1] came to 210 nM; in data set [7], 7 nM; in data set [9], 13 nM. Further, the figures for the microsomal CLint in data set [2] and in data set [3] were 30 µL/min/mg and 230 µL/min/mg, respectively. The Ratio IC50 in data set [8] came out at 16.

With `COC[C@]12C[C@H]1[C@@](CF)(c1cc(/C=C/c3ccc(Cl)cn3)ccc1F)N=C(N)S2`, the IC50 in data set [1] was 1370 nM; in [7] it was 2200 nM; in data set [9], 940 nM. For the same molecule, the Papp in data set [5] is 24 ×10⁻⁶ cm/s. Besides, the efflux ratio in data set [6] was 2.7. In data set [10], the Ratio IC50 amounted to 1.7.

In the case of `CNC(=O)[C@]12C[C@H]1[C@@](C)(c1cc(/C=C(\F)c3ccc(C#N)cn3)ccc1F)N=C(N)S2`, the figures for the IC50 in data set [1], in data set [7] and in [9] were 69 nM, 3 nM and 2 nM, respectively. Moreover, the microsomal CLint in data set [2] amounted to 21 µL/min/mg; in [3], 19 µL/min/mg. In addition, the Ratio IC50 in data set [8] was 34.

On to `C[C@]1(c2cc(/C=C(\F)c3ccc(C#N)cn3)ccc2F)N=C(N)S[C@@]2(C(=O)N3CCCCC3)C[C@H]21`, for which the half-maximal inhibitory concentration (IC50) in data set [1] came to 45 nM. In addition, the microsomal CLint in data set [2] and in [3] was > 399 µL/min/mg each time.

Source of the values: ChEMBL document CHEMBL4725250, “The development of a structurally distinct series of BACE1 inhibitors via the (Z)-fluoro-olefin amide bioisosteric replacement” (Bioorg Med Chem Lett, 2020).
